Assay results published in patent US7195888B2, “Calcium-independent phospholipase A2 induces ischemic ventricular arrhythmias and decreases infarction size” (Washington University in St. Louis, priority 2002, dated 2007).
“Also recorded” adds a separate entry of the source.

What was measured:
iPLA2γ = biological target: T1, iPLA2γ (Homo sapiens, UniProt Q9NP80); conditions: racemic BEL; cited from earlier work
T1 sequence (Q9NP80 1-782): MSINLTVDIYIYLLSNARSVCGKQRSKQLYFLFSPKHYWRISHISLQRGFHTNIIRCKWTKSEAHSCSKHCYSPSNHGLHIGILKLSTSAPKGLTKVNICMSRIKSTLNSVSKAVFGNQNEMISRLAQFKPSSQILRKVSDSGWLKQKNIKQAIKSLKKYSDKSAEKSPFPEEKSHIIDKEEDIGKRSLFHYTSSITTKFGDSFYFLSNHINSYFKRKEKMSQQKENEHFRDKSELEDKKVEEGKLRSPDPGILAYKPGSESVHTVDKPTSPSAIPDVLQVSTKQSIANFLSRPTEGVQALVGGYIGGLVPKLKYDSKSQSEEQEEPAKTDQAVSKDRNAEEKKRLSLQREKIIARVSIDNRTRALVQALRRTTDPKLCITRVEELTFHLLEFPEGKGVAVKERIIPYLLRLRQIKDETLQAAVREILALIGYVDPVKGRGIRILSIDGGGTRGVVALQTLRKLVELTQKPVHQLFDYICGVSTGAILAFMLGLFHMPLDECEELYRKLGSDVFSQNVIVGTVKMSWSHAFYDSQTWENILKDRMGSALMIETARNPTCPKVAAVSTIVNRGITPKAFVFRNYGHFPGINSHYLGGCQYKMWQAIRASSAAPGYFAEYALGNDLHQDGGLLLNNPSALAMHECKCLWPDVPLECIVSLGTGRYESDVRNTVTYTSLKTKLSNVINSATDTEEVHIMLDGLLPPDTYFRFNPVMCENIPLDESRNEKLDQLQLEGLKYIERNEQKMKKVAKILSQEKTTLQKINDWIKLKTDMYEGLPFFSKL

[1] = system: Langendorf-perfused mouse hearts; test: Ischemia-induced ventricular arrhythmias (PVCs, VT) after LAD coronary ligation in isolated Langendorf-perfused mouse hearts; conditions: for frequency of PVCs (PVC frequency/5 min interval) after coronary ligation: BEL 10 μM pretreatment from 5 min before ligation, 30 min ischemia
Description: Data are presented as the +/− standard deviation. A, frequency of PVCs in wild type control mouse hearts (open bars, n=19) and in TGiPLA2β transgenic mouse hearts (closed bars, n=24) in the absence of BEL pretreatment (−BEL). Total PVCs were recorded in 5 minute intervals (0–5, 5–10, 10–15, 15–20, 20–25, and 25–30 min) after ligation of the LAD coronary artery in TGiPLA2β and wild-type control Langendorf hearts. The mean PVC frequency per interval (PVC frequency/5 min interval) was then plotted vs time interval after coronary ligation. […] B, The effect of BEL pretreatment (+BEL) on PVC frequency measured in 5 min intervals after coronary litigation. […] C, Frequency histogram showing total episodes of VT in TGiPLA2β transgenics (closed bars, n=24) vs wild-type control hearts (open bars, n=19) with (+) and without (−) BEL pretreatment.
To determine the role of iPLA2β in arrhythmogenesis during acute cardiac ischemia, a Langendorf perfused heart preparation was employed^6. […] The frequency of spontaneous PVCs was higher in hearts expressing iPLA2β compared with controls at each 5 minute time interval examined during 30 minutes of ischemia (p=0.0003 vs WT by MANOVA) (FIG. 4). Multiple episodes of non-sustained VT occurred in TGiPLA2β hearts (9 of 24 hearts) compared with a single episode in one WT heart (1 of 19 hearts) (p=0.002).
Isolated perfused mouse heart preparations were utilized as previously referenced (1). Briefly, a traditionally accepted ex vivo intact model of acute ischemia was studied. The left anterior descending (LAD) coronary artery was occluded in isolated perfused hearts. Mice were anesthetized with sodium pentobarbital (150 mg/kg IP), and their hearts were rapidly excised and placed in oxygenated Krebs-Henseleit buffer containing (in mmol/L): NaCl 118.3, KCl 2.7, MgSO4 1.0, KH2PO4 1.4, NaHCO3 29.0, CaCl2 3.4, and glucose 10, plus insulin 70 mU/L and BSA 2.8%, at 37° C. Hearts were perfused by retrograde aortic flow with oxygenated buffer at 37° C. Flow rates were adjusted to maintain constant perfusion pressures of 45 to 50 mm Hg. Hearts were simultaneously superfused in a bath containing oxygenated buffer at 37° C. to maintain constant temperature.(1) Circulation 101:547–552 (2000).
Ischemic Studies with Isolated Langendorf-Perfused Mouse Hearts. Ventricular tachyarrhythmias induced by acute ischemia were characterized with use of an isolated, Langendorf-perfused heart preparation as described previously by Lerner et al^6 which is incorporated herein in its entirety by reference. Frequencies of spontaneous arrhythmias (PVCs, and episodes of VT) were counted for 30 min after coronary ligation and tablulated as PVC frequency per 5 minute intervals. A run of ventricular tachycardia was defined as 10 or more beats with a cycle length <100 msec. After 30 min, hearts were perfused through the aortic catheter with 1% Evans blue dye. To determine the effects of BEL on induction of arrhythmias after ischemia, hearts were perfused with buffer containing 10 μM BEL beginning 5 min before coronary ligation and during ischemia. All studies were randomized and blinded.

iPLA2β [2] = test: Acylcarnitine content of ischemic zone of Langendorf perfused hearts by ESI mass spectrometry; set-up: species or system mouse; conditions: BEL 10 uM for 5 min, 15 min ischemia
Description: The ischemia-induced increase in acylcarnitines in wild type mice is inhibited by BEL. Moreover, iPLA2β transgenic mice sustain a dramatic increase in acylcarnitine content during myocardial ischemia in comparison to wild type mice.
Next, ischemia was induced by ligating a marginal branch of the LAD coronary artery and ischemia was induced for 15 minutes. Aliquots of the ischemic zone were taken and rapidly frozen. After addition of internal standard, aliquots of frozen tissue were extracted and analyzed for acylcarnitine content by ESI mass spectrometry by comparisons to standard utilizing methods previously described.

iPLA2β [3] = test: ESI/MS quantification of fatty acid release into effluent and accumulation of fatty acids and lysolipids in ischemic zones of Langendorf perfused hearts; set-up: species or system mouse; conditions: hearts from transgenic mice, 15 min LAD occlusion, BEL pretreatment
Description: A, Nonesterified fatty acid (NEFA) release obtained from 15 in of effluent from control or ischemic Langendorf hearts. *P<0.001 B, NEFA mass in ischemic heart tissue from WT and TGiPLA2β hearts. *P<0.01. C, Lysophosphatidylcholine (LPC) mass in ischemic tissue from WT and TGiPLA2β hearts. *P<0.0001. Release of NEFA into the effluents (a) and accumulation of NEFA (b) and LPC (c) in ischemic tissue from Langendorf-perfused hearts [WT (light bars) and TGiPLA2β (dark bars)] were measured in the absence or presence of LAD occlusion (ischemia) in the absence (−) or presence […] of BEL pretreatment as indicated.
To determine if ischemia activates iPLA2β catalyzed hydrolysis of lipids in intact myocardium, ESI/MS (electrospray—mass spectrometry) was utilized to quantify the release of fatty acids into the effluent and the accumulation of fatty acids and lysolipids in ischemic zones^19,20. After 15 min of LAD occlusion, increased release of fatty acids was present in the effluents from perfused hearts and both fatty acids and lysolipids accumulated in the ischemic zone of hearts from TG iPLA2β mice but not WT mice (FIG. 3a). […] The concurrent activation of iPLA2β during ischemia in conjunction with the generation of malignant ventricular arrhythmias and their rescue by inhibition of the expressed iPLA2β transgene formally fulfills traditional criteria for proof of a cause and effect relationship between two phenomena (i.e., malignant arrhythmias are not present when virtually no iPLA2β activity is present (WT mice) and malignant arrhythmias are manifest during activation of the expressed iPLA2β transgene by ischemia and arrhythmias are ablated by mechanism-based inhibition of expressed iPLA2β enzymic activity).
Electrospray Ionization Mass Spectrometry of Lipids from Wild type and Transgenic Mouse Myocardium. Lipids were extracted from mouse myocardium (˜50 mg) by a modified Bligh and Dyer technique utilizing 50 mM LiCl in the aqueous layer in the presence of internal standards selected based on their lack of demonstrable endogenous molecular ions in that region^19,20. ESI/MS analysis was performed utilizing a Finnigan TSQ-7000 Spectrometer as previously described^19,20.

ischemic myocardium = test: Infarct size after ischemia in hearts overexpressing iPLA2β; set-up: species or system mouse; conditions: iPLA2β overexpression, BEL treatment
Description: Control or iPLA2β transgenic mice were perfused retrograde through the aorta for an equilibration interval prior to the induction of ischemia by ligating the LAD coronary artery. After 15 min. of ischemia the tissue was fixed and the magnitude of infarcted tissue was assessed on a 1 to 5 scale. […] Moreover, the deliberate overexpression of iPLA2β increases infarct size which can be reduced with BEL treatment. Thus the discovery clearly for the first time defines a evidences iPLA2β as a pharmacologic target in any aspect of phospholipase work by discriminating iPLA2β activity from other phospholipases by the traditional pharmacologic criteria of knockdown, inhibition and rescue by inhibition of the species-specific knock down pathophysiology. The evidence is this proof of concept thereby formally provides an intact, functional organ model to test the effect of pharmacologic agents on ischemia induced arrhythmias by inhibition of iPLA2β regulatory networks. […] Collectively, the inventor discovered herein a seminal discovery in that it defines and evidences for the first time in molecular detail a protein target, iPLA2β, for prevention and treatment of ventricular arrhythmias in ischemic zones and identifies a new way to screen for additional targets.

iPLA2β [4] = biological target: T2, iPLA2β (Homo sapiens, UniProt O60733); conditions: racemic BEL; cited from earlier work
T2 sequence (O60733 1-806): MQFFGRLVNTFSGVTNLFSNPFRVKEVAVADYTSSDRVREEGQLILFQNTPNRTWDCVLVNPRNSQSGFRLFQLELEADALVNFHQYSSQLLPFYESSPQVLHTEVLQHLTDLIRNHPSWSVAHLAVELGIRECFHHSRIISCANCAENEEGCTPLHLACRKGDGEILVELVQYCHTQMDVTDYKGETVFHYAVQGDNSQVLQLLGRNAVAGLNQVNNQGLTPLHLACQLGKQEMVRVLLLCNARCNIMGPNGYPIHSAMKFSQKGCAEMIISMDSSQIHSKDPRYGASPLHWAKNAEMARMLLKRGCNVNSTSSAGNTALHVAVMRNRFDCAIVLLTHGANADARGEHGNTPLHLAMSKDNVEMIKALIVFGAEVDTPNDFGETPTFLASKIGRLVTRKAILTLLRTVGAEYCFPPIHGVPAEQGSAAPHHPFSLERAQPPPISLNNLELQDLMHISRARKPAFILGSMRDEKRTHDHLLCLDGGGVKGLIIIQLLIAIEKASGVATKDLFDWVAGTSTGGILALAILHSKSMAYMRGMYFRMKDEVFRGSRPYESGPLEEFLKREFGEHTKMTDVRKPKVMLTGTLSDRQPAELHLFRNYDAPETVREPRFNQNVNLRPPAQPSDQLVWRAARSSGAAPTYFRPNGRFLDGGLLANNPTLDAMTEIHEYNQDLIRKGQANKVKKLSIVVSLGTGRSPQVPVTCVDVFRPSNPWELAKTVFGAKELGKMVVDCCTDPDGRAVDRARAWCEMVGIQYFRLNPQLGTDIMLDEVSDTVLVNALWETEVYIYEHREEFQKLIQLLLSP

ischemic hearts = conditions: previously shown; cited from earlier work
[5] = TGiPLA2β hearts, BEL 10 μM pretreatment, LAD ligation
[6] = listed as phospholipase A2 mechanism-based inhibitor

Row | SMILES | inhibition of iPLA2γ (iPLA2γ) | frequency of PVCs (PVC frequency/5 min interval) after coronary ligation ([1]; TGiPLA2β hearts) | episodes of ventricular tachycardia / malignant ventricular tachyarrhythmias [1, 5] | hearts with VT / hearts studied [1, 5] | episodes of ventricular tachycardia / malignant ventricular tachyarrhythmias ([1]; TGiPLA2β hearts, BEL 10 μM pretreatment, LAD ligation, listed as phospholipase A2 mechanism-based inhibitor) | frequency of PVCs (PVC frequency/5 min interval) after coronary ligation ([1]; WT control hearts) | ischemia-induced increase in acylcarnitines (iPLA2β [2]; iPLA2β transgenic hearts) | ischemia-induced increase in acylcarnitines (iPLA2β [2]; wild type (control) hearts) | accumulation of lysolipids in ischemic zones (iPLA2β [3]) | release of fatty acids (iPLA2β [3]) | accumulation of lysolipids in ischemic zones (iPLA2β [3]; [6]) | release of fatty acids (iPLA2β [3]; [6]) | infarct size (ischemic myocardium) | inhibition of iPLA2β (iPLA2β [4]) | arrhythmias in ischemic hearts (ischemic hearts)
1 | O=C1O/C(=C/Br)CCC1c1cccc2ccccc12 (stereo not drawn) [BEL, (E)-6-(bromomethylene)-3-(1-naphthalenyl)-2H-tetrahydropyran-2-one] | inhibits | inhibited the frequency of PVCs; also recorded: significant decrease in PVC frequency | completely abolished VT; also recorded: rescue of ischemia-induced ventricular tachyarrhythmias; also recorded: significant reduction of VT episodes | 0/10 | rescued transgenic hearts from malignant ventricular dysrhythmias | inhibited the frequency of PVCs; also recorded: reduced PVC frequency | inhibitable; also recorded: inhibited | major portion of acyl carnitine accumulation is BEL inhibitable; also recorded: inhibited | nearly completely ablated | nearly completely ablated | completely ablated | completely ablated | reduced | inhibits | 
2 | CCOC(=O)[C@@]1(CCCCCCOc2ccc(Cl)cc2)CO1 [Etomoxir] |  |  |  |  |  |  |  |  |  |  |  |  |  |  | inhibit arrhythmias
